Target: T1, mouse CXCR3 (Mus musculus, UniProt O88410)
T1 sequence (O88410 1-367): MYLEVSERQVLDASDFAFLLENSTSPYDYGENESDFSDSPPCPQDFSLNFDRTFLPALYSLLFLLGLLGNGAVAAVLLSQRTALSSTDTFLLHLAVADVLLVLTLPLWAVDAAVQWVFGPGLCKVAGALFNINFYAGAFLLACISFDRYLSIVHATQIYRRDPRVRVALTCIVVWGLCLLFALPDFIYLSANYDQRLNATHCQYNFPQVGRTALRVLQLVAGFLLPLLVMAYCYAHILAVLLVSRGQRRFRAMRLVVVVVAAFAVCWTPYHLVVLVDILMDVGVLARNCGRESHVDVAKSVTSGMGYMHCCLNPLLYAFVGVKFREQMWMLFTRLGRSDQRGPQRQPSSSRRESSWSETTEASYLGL
Experiment: […]-CXCL10 radioligand displacement on HEK […] cells transfected with mouse CXCR3
Assay type: cell-based

- IC50: 53 ± 7 nM
Substance: AMG1237845
